According to patent US6054258A, “Photographic elements containing high-boiling esters” (Eastman Kodak Company, priority 1998, dated 2000):
In brackets after ≈: the same amount, converted by molar mass.

Columns and labels:
Format in all cases: physicochemical
[1] = Visible absorption maximum (Lambda max) of Dye C1 in the solvent, measure of solvent polarity/polarizability; conditions: for Lambda max of Dye C1: Dye C1 in the high-boiling solvent, Perkin Elmer Lambda 2S spectrophotometer; for Lambda max of Dye C1 (in words): relative to B1 and B4; for polarity/polarizability (in words): relative to B1
Experimental: (§1) As noted earlier, high-boiling solvents are desired that have low water solubility and low-to-moderate viscosity and that provide suitably bathochromic dye hues, i.e. hues of suitably long wavelengths. In this example, these properties are evaluated for comparison high-boiling solvents known in the art and for high-boiling solvents of this invention. Results are summarized in Table I. Structures of the comparative high-boiling solvents are provided after Table I.
(§2) Water solubilities were obtained from plots of light scattering at 500 nm of dispersions of the high-boiling solvent in water versus concentration. The light scattering density goes to zero at the solubility limit, when dispersions of high-boiling solvent are diluted. Values of log P calculated using MEDCHEM version 3.54 are also given in Table I and serve as rough indicators of water solubility. Viscosities reported in Table I were measured using a Brookfield cone/plate viscometer. Solvents of high polarity and/or polarizability are often needed to provide suitably bathochromic hues for the types of dyes commonly encountered in color photographic materials. Dye C1, whose structure is provided after Table I, is representative of such dyes. The visible absorption maxima (Lambda max) values for C1, measured with a Perkin Elmer Lambda 2S spectrophotometer, are provided in Table I as measure of solvent polarity/polarizability.

[2] = Water solubility from light scattering at 500 nm of dispersions of the high-boiling solvent in water
Experimental: as §1, with “invention.” for “invention. Results are summarized in Table I. Structures of the comparative high-boiling solvents are provided after Table I.”
as §2, with “Values of log P calculated using MEDCHEM version 3.54 are also given in Table I and serve as rough indicators of water solubility.” left out

[3] = Viscosity measured using a Brookfield cone/plate viscometer
Experimental: as §1, §2

Row | SMILES | Lambda max of Dye C1 [1] | Lambda max of Dye C1 (in words) [1] | solubility [2] | Viscosity [3] | polarity/polarizability (in words) [1]
1 | O=C(OCCCc1ccccc1)c1ccccc1 [A1] | 673 nm | relatively close to those of B1 and B4 | 5.5 µg/mL (≈ 22.9 µM) | 15 centipoise | 
2 | CC(C)(COC(=O)c1ccccc1)Cc1ccccc1 [A2] | 668 nm | relatively close to those of B1 and B4 |  | 99 centipoise | 
3 | Cc1ccc(C(=O)OCCCc2ccccc2)cc1 [A3] | 670 nm | relatively close to those of B1 and B4 | 3.5 µg/mL (≈ 13.8 µM) | 22 centipoise | 
4 | CCCCOC(=O)c1ccccc1C(=O)OCCCC [B1, dibutyl phthalate] | 674 nm |  | 9.4 µg/mL (≈ 33.8 µM) | 17 centipoise | 

Further lines, with some results ahead:

Row | Lambda max of Dye C1 [1] | Lambda max of Dye C1 (in words) [1] | solubility [2] | Viscosity [3] | SMILES | polarity/polarizability (in words) [1]
5 | 658 nm |  | 0.8 µg/mL (≈ 2.54 µM) | 9 centipoise | CCCCOC(=O)CCCCCCCCC(=O)OCCCC [B2] | reduced polarity/polarizability relative to B1
6 | 661 nm |  |  | 6 centipoise | CCCCC(CC)COC(=O)C1CCCCC1 (stereo not drawn) [B3] | reduced polarity/polarizability relative to B1
7 | 674 nm |  | 10 µg/mL (≈ 44.2 µM) | 14 centipoise | O=C(OCCc1ccccc1)c1ccccc1 [B4] | 
